# Measured values: US12458647B2, “Macrocyclic derivative and use thereof” (Guangzhou Joyo Pharmatech Co., Ltd., priority 2022, dated 2025)
# pIC50: −log10 of the molar value.
# Experiments:
# Format in all cases: cell-based
# [1] = system: GP2D cell line; assay: In vitro cell proliferation experiment (5 days, 3D CellTiter-Glo), GP2D; details: read-out: Inhibitory Activity IC50
# Procedure: (§1) RPMI 1640 medium, DMEM, Ham's F12 medium, F12K medium, IMDM and penicillin/streptomycin antibiotics were purchased from Gibco, fetal bovine serum was purchased from Hyclone, Envision multilabel plate reader (PerkinElmer). […]
# (§2) The test compound was diluted by 5-fold to 8 concentrations with a pipette, i.e., from 2 mM to 25.6 nM, and replicate wells were set up for the experiment. […] Another cell plate was prepared, and the signal value was read as the maximum value (the maximum value in the following equation) on the day of dosing for data analysis.
# (§3) 50 μL of cell viability chemiluminescent detection reagent was added to the cell plate and incubated at room temperature for 30 minutes to stabilize the luminescence signal. A multilabel plate reader was used for reading. […]
# [2] = system: NCI—H441 cells; assay: In vitro cell proliferation experiment (5 days), H441; details: H441, 5 days; read-out: Inhibitory Activity IC50
# Procedure: as §1, §2, §3
# [3] = system: A375 cell line; assay: In vitro cell proliferation experiment (5 days), A375 (wild-type independent cell line); details: A375, 5 days; read-out: Inhibitory Activity IC50
# Procedure: as §1, §2, §3
smiles,measurement,setting,value
"CCn1c(-c2cc(N3CCN(C)CC3)cnc2C(C)OC)c2c3cc(ccc31)-c1csc(n1)CC(NC(=O)C1C(C)C1C)C(=O)N1NC(C(=O)OCC(C)(C)C2)C2CC1C2 (single isomer, unassigned) [Compound 6A]",pIC50,[1],9.05
same,pIC50,[2],8.85
same,pIC50,[3],< 5.22
